Assay results: the NIST ThermoML archive (doi:10.1021/je0496950)

Test: mn = molality of the nth substance listed, in mol/kg
Conditions: 101 kPa, Liquid; for speed of sound: Pulse-echo method

CC#N [acetonitrile] + [Co+2].[O-][Cl+3]([O-])([O-])[O-].[O-][Cl+3]([O-])([O-])[O-]
m2 = 0
Conditions	mass density [kg/m3]
288.13 K	787.307
293.15 K	781.933
298.15 K	776.535
303.15 K	771.114
308.15 K	765.664
313.15 K	760.181
323.15 K	749.107

CC#N [acetonitrile] + [Cu+2].[O-][Cl+3]([O-])([O-])[O-].[O-][Cl+3]([O-])([O-])[O-]
m2 = 0
Conditions	mass density [kg/m3]
288.13 K	787.308
293.15 K	781.932
298.15 K	776.532
303.15 K	771.102
308.15 K	765.645
313.15 K	760.155
323.15 K	749.067

CC#N [acetonitrile] + [Mn+2].[O-][Cl+3]([O-])([O-])[O-].[O-][Cl+3]([O-])([O-])[O-]
m2 = 0
Conditions	mass density [kg/m3]
288.15 K	787.308
293.15 K	781.932
298.15 K	776.531
303.15 K	771.102
308.15 K	765.645
313.15 K	760.156
323.15 K	749.07

CC#N [acetonitrile] + [Ni+2].[O-][Cl+3]([O-])([O-])[O-].[O-][Cl+3]([O-])([O-])[O-]
m2 = 0
Conditions	mass density [kg/m3]
288.13 K	787.307
293.15 K	781.93
298.15 K	776.53
303.15 K	771.101
308.15 K	765.645
313.15 K	760.155
323.15 K	749.068

CC#N [acetonitrile] + [O-][Cl+3]([O-])([O-])[O-].[O-][Cl+3]([O-])([O-])[O-].[Zn+2]
m2 = 0
Conditions	mass density [kg/m3]
288.13 K	787.312
293.15 K	781.934
298.15 K	776.535
303.15 K	771.106
308.15 K	765.649
313.15 K	760.158
323.15 K	749.07

[Co+2].[O-][Cl+3]([O-])([O-])[O-].[O-][Cl+3]([O-])([O-])[O-] [cobalt(II) perchlorate] + CC#N
Conditions	mass density, 288.13 K [kg/m3]	mass density, 293.15 K [kg/m3]	mass density, 298.15 K [kg/m3]	mass density, 303.15 K [kg/m3]	mass density, 308.15 K [kg/m3]	mass density, 313.15 K [kg/m3]	mass density, 323.15 K [kg/m3]	speed of sound, 298.15 K [m/s]
m1 = 0.0631	799.771	794.418	789.05	783.653	778.228	772.771	761.76	–
m1 = 0.06311	–	–	–	–	–	–	–	1282.4
m1 = 0.1115	809.436	804.1	798.743	793.363	787.958	782.523	771.558	1285.1
m1 = 0.1477	816.764	811.44	806.094	800.726	795.334	789.913	778.975	1287
m1 = 0.1815	823.65	818.333	812.996	807.639	802.256	796.848	785.942	1289
m1 = 0.2169	831.031	825.723	820.399	815.051	809.685	804.289	793.42	1290.7
m1 = 0.2496	837.824	832.525	827.21	821.873	816.516	811.134	800.293	1292.6
m1 = 0.2829	844.904	839.613	834.306	828.983	823.636	818.267	807.451	1294.5
m1 = 0.3172	852.306	847.023	841.727	836.41	831.074	825.719	814.932	1296.4
m1 = 0.3491	859.24	853.965	848.675	843.372	838.048	832.702	821.94	1298.2
